Assay results from patent publication US4684664A, “Derivatives of β-(4-isocyano-1,2,3,4-diepoxycyclopentyl) acrylic acid” (Kureha Kagaku Kogyo Kabushiki Kaisha, priority 1984, dated 1987).
Values after ≈ are worked out from the molar mass of the structure shown.

Tests used:
Assay type in all cases: cell-based
[1] = system: Salmonella typhimurium IID 971; assay: Antibacterial activity, agar-dilution MIC, organism No. 8; conditions: Salmonella enterica; Organism No. 8, bouillon-agar; read-out: Minimum Inhibitory Concentration
Summary of the method: (§1)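 An agar-dilution procedure on bouillon-agar medium was applied, and each MIC was recorded as micrograms of specimen per ml of medium.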

Proteus vulgaris OX-19 = assay: Antibacterial activity, agar-dilution MIC, organism No. 20; conditions: Proteus vulgaris, OX19; Organism No. 20, bouillon-agar; read-out: Minimum Inhibitory Concentration
Summary of the method: as §1

[2] = system: Pseudomonas aeruginosa NCTC 10490; assay: Antibacterial activity, agar-dilution MIC, organism No. 16; conditions: Pseudomonas aeruginosa, NCTC10490; Organism No. 16, bouillon-agar; read-out: Minimum Inhibitory Concentration
Summary of the method: as §1

[3] = system: Serratia marcescens IAM 1184; assay: Antibacterial activity, agar-dilution MIC, organism No. 13; conditions: Serratia marcescens, IAM1184; Organism No. 13, bouillon-agar; read-out: Minimum Inhibitory Concentration
Summary of the method: as §1

[4] = system: Aspergillus niger IFO 6342; assay: Antifungal activity, agar-dilution MIC, organism No. 30; conditions: Aspergillus niger, IFO6342; Organism No. 30, bouillon-agar; read-out: Minimum Inhibitory Concentration
Summary of the method: as §1

[5] = system: Streptococcus pyogenes Cook; assay: Antibacterial activity, agar-dilution MIC, organism No. 4; conditions: Streptococcus pyogenes; Organism No. 4, bouillon-agar; read-out: Minimum Inhibitory Concentration
Summary of the method: as §1

[6] = system: Escherichia coli NIHJ-JC-2; assay: Antibacterial activity, agar-dilution MIC, organism No. 5; conditions: Escherichia coli, NIHJJC2; Organism No. 5, bouillon-agar; read-out: Minimum Inhibitory Concentration
Summary of the method: as §1

[7] = system: Salmonella enteritidis G 14; assay: Antibacterial activity, agar-dilution MIC, organism No. 12; conditions: Salmonella enterica, ENTERITIDIS; Organism No. 12, bouillon-agar; read-out: Minimum Inhibitory Concentration
Summary of the method: as §1

Salmonella typhi 901 = assay: Antibacterial activity, agar-dilution MIC, organism No. 9; conditions: Salmonella enterica, TYPHI, read-out: Minimum Inhibitory Concentration
Summary of the method: as §1

Enterobacter cloacae 963 = assay: Antibacterial activity, agar-dilution MIC, organism No. 24; conditions: Enterobacter cloacae, 963; Organism No. 24, bouillon-agar; read-out: Minimum Inhibitory Concentration
Summary of the method: as §1

[8] = system: Klebsiella pneumoniae PCI-602; assay: Antibacterial activity, agar-dilution MIC, organism No. 7; conditions: Klebsiella pneumoniae, PCI602; Organism No. 7, bouillon-agar; read-out: Minimum Inhibitory Concentration
Summary of the method: as §1

[9] = system: Staphylococcus aureus FDA 209PJc-1; assay: Antibacterial activity, agar-dilution MIC, organism No. 1; conditions: Staphylococcus aureus, FDA209PJC1; Organism No. 1, bouillon-agar; read-out: Minimum Inhibitory Concentration
Summary of the method: as §1

[10] = system: Pseudomonas aeruginosa PAO 1; assay: Antibacterial activity, agar-dilution MIC, organism No. 17; conditions: Pseudomonas aeruginosa, PAO1; Organism No. 17, bouillon-agar; read-out: Minimum Inhibitory Concentration
Summary of the method: as §1

[11] = system: Streptococcus pyogenes IFO 3340; assay: Antibacterial activity, agar-dilution MIC, organism No. 26; conditions: Streptococcus pyogenes, IFO3340; Organism No. 26, bouillon-agar; read-out: Minimum Inhibitory Concentration
Summary of the method: as §1

[12] = system: Proteus rettgeri IFO 3850; assay: Antibacterial activity, agar-dilution MIC, organism No. 22; conditions: Providencia rettgeri, IFO3850; Organism No. 22, bouillon-agar; read-out: Minimum Inhibitory Concentration
Summary of the method: as §1

[13] = system: Proteus morganii IFO 3848; assay: Antibacterial activity, agar-dilution MIC, organism No. 18; conditions: Morganella morganii, IFO3848; Organism No. 18, bouillon-agar; read-out: Minimum Inhibitory Concentration
Summary of the method: as §1

[14] = system: Bacillus subtilis ATCC 6633; assay: Antibacterial activity, agar-dilution MIC, organism No. 14; conditions: Bacillus subtilis, ATCC6633; Organism No. 14, bouillon-agar; read-out: Minimum Inhibitory Concentration
Summary of the method: as §1

[15] = system: Micrococcus luteus ATCC 9341; assay: Antibacterial activity, agar-dilution MIC, organism No. 25; conditions: Micrococcus luteus, ATCC9341; Organism No. 25, bouillon-agar; read-out: Minimum Inhibitory Concentration
Summary of the method: as §1

[16] = system: Mycoplasma pneumoniae IID817; assay: Antimycoplasmal activity, MIC by phenol red colour change, organism No. 28; conditions: Mycoplasma, IID817; Organism No. 28, PPLO broth + 1% glucose, 37° C.; read-out: Minimum Inhibitory Concentration (MIC)
Protocol: Mycoplasma pneumoniae IID817 was used as the test microorganism in a culture medium prepared by adding 1% of glucose to "PPLO broth (manufactured by Difco Co.) liquid culture medium" at 37° C. with phenol red as an indicator, thereby culturing the test microorganism.

[17] = system: Streptococcus faecium IFO 3826; assay: Antibacterial activity, agar-dilution MIC, organism No. 27; conditions: Enterococcus faecium, IFO3826; Organism No. 27, bouillon-agar; read-out: Minimum Inhibitory Concentration
Summary of the method: as §1

[18] = system: Enterobacter aerogenes ATCC 13048; assay: Antibacterial activity, agar-dilution MIC, organism No. 23; conditions: Klebsiella aerogenes, ATCC13048; Organism No. 23, bouillon-agar; read-out: Minimum Inhibitory Concentration
Summary of the method: as §1

[19] = system: Salmonella paratyphi-A 1015; assay: Antibacterial activity, agar-dilution MIC, organism No. 10; conditions: Salmonella enterica, PARATYPHI, read-out: Minimum Inhibitory Concentration
Summary of the method: as §1

Proteus vulgaris HX-19 = assay: Antibacterial activity, agar-dilution MIC, organism No. 21; conditions: Proteus vulgaris, HX19; Organism No. 21, bouillon-agar; read-out: Minimum Inhibitory Concentration
Summary of the method: as §1

[20] = system: Proteus mirabilis IFO 3849; assay: Antibacterial activity, agar-dilution MIC, organism No. 19; conditions: Proteus mirabilis, IFO3849; Organism No. 19, bouillon-agar; read-out: Minimum Inhibitory Concentration
Summary of the method: as §1

[21] = system: Escherichia coli K12 C600 IAM 1264; assay: Antibacterial activity, agar-dilution MIC, organism No. 6; conditions: Escherichia coli, IAM1264; Organism No. 6, bouillon-agar; read-out: Minimum Inhibitory Concentration
Summary of the method: as §1

[22] = system: Candida albicans IAM 4905; assay: Antifungal activity, agar-dilution MIC, organism No. 29; conditions: Candida albicans, IAM4905; Organism No. 29, bouillon-agar; read-out: Minimum Inhibitory Concentration
Summary of the method: as §1

[23] = system: Staphylococcus aureus Terajima; assay: Antibacterial activity, agar-dilution MIC, organism No. 2; conditions: Staphylococcus aureus; Organism No. 2, bouillon-agar; read-out: Minimum Inhibitory Concentration
Summary of the method: as §1

[24] = system: Staphylococcus aureus MS 353; assay: Antibacterial activity, agar-dilution MIC, organism No. 3; conditions: Staphylococcus aureus, MS353; Organism No. 3, bouillon-agar; read-out: Minimum Inhibitory Concentration
Summary of the method: as §1

[25] = system: Salmonella shottmuelleri 8006; assay: Antibacterial activity, agar-dilution MIC, organism No. 11; conditions: Salmonella, 8006; Organism No. 11, bouillon-agar; read-out: Minimum Inhibitory Concentration
Summary of the method: as §1

[26] = system: Pseudomonas aeruginosa IFO 3445; assay: Antibacterial activity, agar-dilution MIC, organism No. 15; conditions: Pseudomonas aeruginosa, IFO3445; Organism No. 15, bouillon-agar; read-out: Minimum Inhibitory Concentration
Summary of the method: as §1

| SMILES | MIC [1] [µg/mL] | MIC (Proteus vulgaris OX-19) [µg/mL] | MIC [2] [µg/mL] | MIC [3] [µg/mL] | MIC [4] [µg/mL] | MIC [5] [µg/mL] | MIC [6] [µg/mL] | MIC [7] [µg/mL] | MIC (Salmonella typhi 901) [µg/mL] | MIC (Enterobacter cloacae 963) [µg/mL] | MIC [8] [µg/mL] | MIC [9] [µg/mL] | MIC [10] [µg/mL] | MIC [11] [µg/mL] | MIC [12] [µg/mL] | MIC [13] [µg/mL] | MIC [14] [µg/mL] | MIC [15] [µg/mL] | MIC [16] [µg/mL] | MIC [17] [µg/mL] | also measured |
| --- | --- | --- | --- | --- | --- | --- | --- | --- | --- | --- | --- | --- | --- | --- | --- | --- | --- | --- | --- | --- | --- |
| [C-]#[N+]C12CC3(/C=C/C(=O)Nc4ccc(C(=O)O)cc4)OC3C1O2 (stereo not drawn) [compound 51] | 100 (≈ 320 µM) | 12.5 (≈ 40 µM) | > 200 | > 200 | 100 (≈ 320 µM) | 12.5 (≈ 40 µM) | 200 (≈ 640 µM) | 50 (≈ 160 µM) | 50 (≈ 160 µM) | > 200 | 100 (≈ 320 µM) | 12.5 (≈ 40 µM) | > 200 | 25 (≈ 80.1 µM) | > 200 | 1.56 (≈ 5 µM) | 50 (≈ 160 µM) | 1.56 (≈ 5 µM) | < 0.2 | 12.5 (≈ 40 µM) | MIC [18]: > 200 µg/mL; MIC [19]: 50 µg/mL (≈ 160 µM); MIC (Proteus vulgaris HX-19): 12.5 µg/mL (≈ 40 µM); MIC [20]: > 200 µg/mL; MIC [21]: 200 µg/mL (≈ 640 µM); MIC [22]: 100 µg/mL (≈ 320 µM); MIC [23]: 12.5 µg/mL (≈ 40 µM); MIC [24]: 6.25 µg/mL (≈ 20 µM); MIC [25]: 50 µg/mL (≈ 160 µM); MIC [26]: > 200 µg/mL |
| [C-]#[N+]C12CC3(/C=C/C(=O)Nc4cccc(C(=O)O)c4)OC3C1O2 (stereo not drawn) [compound 52] | 100 (≈ 320 µM) | 50 (≈ 160 µM) | > 200 | > 200 | 100 (≈ 320 µM) | 50 (≈ 160 µM) | 200 (≈ 640 µM) | 50 (≈ 160 µM) | 50 (≈ 160 µM) | > 200 | 200 (≈ 640 µM) | 12 (≈ 38.4 µM) | > 200 | 100 (≈ 320 µM) | > 200 | 12.5 (≈ 40 µM) | 200 (≈ 640 µM) | 25 (≈ 80.1 µM) | < 0.2 | 50 (≈ 160 µM) | MIC [18]: > 200 µg/mL; MIC [19]: 50 µg/mL (≈ 160 µM); MIC (Proteus vulgaris HX-19): 50 µg/mL (≈ 160 µM); MIC [20]: > 200 µg/mL; MIC [21]: 200 µg/mL (≈ 640 µM); MIC [22]: 100 µg/mL (≈ 320 µM); MIC [23]: 50 µg/mL (≈ 160 µM); MIC [24]: 25 µg/mL (≈ 80.1 µM); MIC [25]: 50 µg/mL (≈ 160 µM); MIC [26]: > 200 µg/mL |
| [C-]#[N+]C12CC3(/C=C/C(=O)OCC(=O)c4ccc([N+](=O)[O-])cc4)OC3C1O2 (stereo not drawn) [compound 8] | 25 (≈ 70.2 µM) | 12.5 (≈ 35.1 µM) | > 100 | 100 (≈ 281 µM) | 100 (≈ 281 µM) | 50 (≈ 140 µM) | 25 (≈ 70.2 µM) | 12.5 (≈ 35.1 µM) | 12.5 (≈ 35.1 µM) | > 100 | 50 (≈ 140 µM) | 12.5 (≈ 35.1 µM) | > 100 | 50 (≈ 140 µM) | > 100 | 25 (≈ 70.2 µM) | 100 (≈ 281 µM) | 12.5 (≈ 35.1 µM) | 1.56 | 25 (≈ 70.2 µM) | MIC [18]: > 100 µg/mL; MIC [19]: 25 µg/mL (≈ 70.2 µM); MIC (Proteus vulgaris HX-19): 12.5 µg/mL (≈ 35.1 µM); MIC [20]: 100 µg/mL (≈ 281 µM); MIC [21]: 25 µg/mL (≈ 70.2 µM); MIC [22]: 25 µg/mL (≈ 70.2 µM); MIC [23]: 25 µg/mL (≈ 70.2 µM); MIC [24]: 12.5 µg/mL (≈ 35.1 µM); MIC [25]: 25 µg/mL (≈ 70.2 µM); MIC [26]: > 100 µg/mL |
